According to US8535897B2, “Assays for non-apoptotic cell death and uses thereof” (The Trustees of Columbia University in the City of New York, priority 2006, dated 2013):
Where a name gives a salt, the structure may show the parent alone.

How the values were obtained:
[1] = system: BJ-TERT/LT/ST/RAS^V12 cells; experiment: Suppression of erastin lethality by MEK inhibitors (Trypan Blue); format: cell-based, human; details: U0126 20 μM, MEK inhibitor I 10 μM, MEK 1/2 inhibitor 50 μM, 48 h
Procedure: BJ-TERT/LT/ST/RASV12 engineered tumor cells were treated with the indicated concentrations of erastin and each MEK1/2 inhibitor for 24 hours and viability was determined by Trypan Blue exclusion.
Cells grown in 175 cm^2 flasks were reseeded in 6-well format (1.4×10^5 cells/well) and treated with erastin dilutions (5-fold, from 36 uM to 60 nM, with no-drug control, n=2) in the presence of one of the MEK inhibitors U0126 (20 uM), MEK inhibitor I (10 uM), MEK 1/2 inhibitor (50 uM), PD98059 (50 uM), MEK inhibitor II (30 uM), or in the absence of inhibitor. After 48 hours, cells were trypsinized and counted using a Vi-CELL™ Series Cell Viability Analyzer. […] Non-linear regression was used to fit curves to the data points using GraphPad Prism™ software. The bottom of each curve was set to zero.

[2] = system: BJ-TERT/LT/ST/RAS^V12 cells; experiment: Suppression of erastin lethality by iron chelators (Alamar Blue); format: cell-based, human; details: 100 μM DFOM, 100 μM 1a, 100 μM 2, 10 μM or 1 μM 311, 24 h
Procedure: BJ-TERT/LT/ST/RAS^V12 cells were treated with erastin and four different iron chelators, desferrioxamine mesylate (DFOM), the compounds 1a and 2 whose structures are shown in FIG. 30, and the compound “311” (311-10 or 311-1) (Green, D. A, et al., Inhibition of Malignant Cell Growth by 311, a novel iron chelator of the pyridoxal isonicotinoyl hydrazone class: Effect on the R2 subunit of ribonucleotide reductase. Clinical Cancer Research, (7): 3574-3579 (2001). Cell killing was measured by Alamar Blue assay.
(a) BJ-TERT/LT/ST/RAS^V12 cells were treated with 9 μM erastin A1 for the indicated length of time, and the number of viable cells determined. (b) 1,000 BJ-TERT/LT/ST/RAS^V12 cells/well in 384-well plates were treated with erastin for 2 d, then alamar blue was added to a final concentration of 10% and the plates were incubated for 16 h. Red fluorescence resulting from reduction of alamar blue was detected on a Victor3 platereader. […] (e) The number of viable cells was quantified under each condition using a hemacytometer. […] BJ-TERT/LT/ST/RAS^V12 (shown in histogram plots, and in line graph as dark diamonds) or BJ-TERT cells (shown in line graph only, light circles) were treated with 4.6-μM erastin A1 and the level of intracellular oxidative species determined. […] ATP levels were measured, viable cells determined by Trypan Blue exclusion and ATP per viable cell determined. […]

[3] = system: BJ-TERT/LT/ST/RASV12; experiment: Alamar blue viability assay, engineered tumor cells; format: cell-based, human; details: for selective lethality / activity in cells: BJ-TERT/LT/ST/RAS^V12 cells vs BJ-TERT cells
Procedure: Erastin was tested in a dilution series in five engineered cell lines derived from primary BJ fibroblasts. Cells were incubated with erastin for two days at 37° C. with 5% CO2, Alamar blue was added (10% final volume) and fluorescence measured (530 nm ex, 590 nm em). Cell lines harboring oncogenic RAS (triangles, circles and x's) were sensitive to erastin, but isogenic lines lacking oncogenic RAS (squares and diamonds) were resistant. Two different clones of engineered tumor cells (circles and triangles) responded similarly.
(a) BJ-TERT/LT/ST/RAS^V12 cells were treated with 9 μM erastin A1 for the indicated length of time, and the number of viable cells determined. (b) 1,000 BJ-TERT/LT/ST/RAS^V12 cells/well in 384-well plates were treated with erastin for 2 d, then alamar blue was added to a final concentration of 10% and the plates were incubated for 16 h. Red fluorescence resulting from reduction of alamar blue was detected on a Victor3 platereader. The percent growth inhibition is shown; error bars represent one SD. […] (c) TEM images (20,000× magnification) of BJ-TERT/LT/ST/RAS^V12 mitochondria after cells were treated with nothing, erastin (37 μM for 10 h) or staurosporine (STS, 1 μM for 5 h), and phase-contrast photograph of BJ-TERT/LT/ST/RAS^V12 cells 24 h after 9 μM erastin A1 treatment is also shown to indicate that even after cell death, nuclei are intact. (d) Anti-oxidants suppress erastin-induced death. BJ-TERT/LT/ST/RAS^V12 cells were treated as indicated and photographed. (e) The number of viable cells was quantified under each condition using a hemacytometer. (f) Iron chelators suppress erastin-induced cell death. Cells were seeded in 384-well plates (6,000 cells/well) and treated with 2-fold dilution series of erastin in the presence of 100 μM desferrioxamine mesylate (DFOM), 100 μM of iron chelator 1a, 100 μM of iron chelator 2, 10 μM or 1 μM of iron chelator 311. After 24 h, alamar blue was added and cell viability assayed. (g, h) Erastin-induced formation of oxidative species. BJ-TERT/LT/ST/RAS^V12 (shown in histogram plots, and in line graph as dark diamonds) or BJ-TERT cells (shown in line graph only, light circles) were treated with 4.6-μM erastin A1 and the level of intracellular oxidative species determined. (i, j) STS, but not erastin, induces PARP1 cleavage (red bands at top) in BJ-TERT/LT/ST/RAS^V12 cells and in A673, HT1080 and HeLa cells. NS: non-specific band. […] Cells were treated with STS or erastin, separated into mitochondrial and cytosolic fractions, and probed for cytochrome c (lower red band) and total VDAC (middle green band, pan-VDAC antibody). (1) Caspase-3 is not cleaved in response to erastin. Cells were treated as indicated and probed with an anti-caspase-3 antibody that recognizes both the full length and the cleaved, active form (lower band). […] ATP levels were measured, viable cells determined by Trypan Blue exclusion and ATP per viable cell determined. Abbreviations: DMSO, dimethylsulfoxide; BHT, butylated hydroxytoluene; TOC, alpha-tocopherol; ERA, erastin A1; CAR, beta-carotene; STS, staurosprine.
(a) Calu-1 lung carcinoma cells harboring oncogenic KRAS were infected with lentivirus containing shRNAs targeting KRAS or GFP. Sequences of shRNAs are indicated by starting nucleotide (nt) in the KRAS mRNA coding sequence. Cells were treated with erastin and viability measured by Trypan Blue exclusion. (b) Knockdown of KRAS was confirmed by western blot. (c,d) A673 cells harboring oncogenic BRAF were infected with lentiviral shRNAs targeting BRAF exon 5 (c) or the 5′ UTR (d), luciferase (LUC)(c) or GFP (d). Cells were treated with erastin and viability measured using Alamar Blue (c) and Trypan Blue (d). (e) Knockdown of BRAF was confirmed by western blot. […] BJ-TERT/LT/ST/RAS^V12 cells were treated with erastin alone or in with a MEK inhibitor U0126 (20 μM), MEK inhibitor I (10 μM) or MEK 1/2 inhibitor (50 μM). After 48 h, viability was determined using Trypan Blue. […]

[4] = system: VDAC1, VDAC2 and VDAC3; experiment: VDAC chemi-proteomic identification (pull-down on immobilized erastin analogs); format: binding, human; details: BJ-TERT/LT/ST/RAS^V12 cell lysates
From the text: Erastin A6, Erastin A3, and erastin B2 were immobilized on solid-phase resins, and proteins that interact with A3 or A6, but not B2 were identified. […] In certain embodiments, wherein BJ-TERT cell lysates were used, a small amount of VDAC1 on the A3 and A6 resins was identified, but none of the VDACs were bound on the B2 resin. Thus, it appears that erastin A3 and A6 more efficiently isolate VDAC2 and VDAC3 compared to erastin B2.
Cultures of BJ-TERT and BJ-TERT/LT/ST/RAS^V12 cells (ten 150 mm plates) were washed with PBS, lysed in 25 mM hydroxyethylpiperazine-N′-2-ethanesulfonic acid (HEPES) pH 7.5, 150 mM NaCl, 1% NP-40, 10 mM MgCl2, 1 mM ethylene-diamine tetra acetate (EDTA), 10% glycerol, 1 mM dithiothreitol (DTT) and protease inhibitor cocktail. Protein concentration was determined using a Bradford colorimetric assay.
Erastin A3 and B2 were dissolved in DMSO at 10 mg/ml. 100 μL of AffiGel-10 was washed and resuspended in 400 μl DMSO. 10 μL of compound and 3 μL of 1:100 dilution of triethylamine in DMSO were added. […] Samples were analyzed using both a 4700 Proteomics Analyzer MALDI-TOF/TOF (TOF/TOF; Applied Biosystems) and a Q Trap (AB/MDS Sciez) and the peptide level data were combined. […]

[5] = system: BJELR cells; experiment: Sensitivity after upregulation of VDACs by nucleofection; format: cell-based, human
From the text: Quantitative western blot showing the ratio of VDACs (top band, green) to eif4E (bottom band, red) (e). […] Green, untransfected BJELR cells; blue, mock nucleofected BJELR cells; red, VDAC2/3-nucleofected BJELR cells (f).
In certain aspects, the invention provides that erastin acts by a gain-of-function mechanism and that cells with more VDAC proteins are more sensitive to erastin. A gain-of-function mechanism operates in cells which have increased levels of topoisomerase I and are thus more sensitive to camptothecin^149. […] In other embodiments, cell lines can be stably transfected with vectors expressing VDAC1, 2, and/or 3. Thus, increased VDAC expression leads to erastin sensitivity which is consistent with a gain of function mechanism. Furthermore, a knockdown of VDACs causes erastin resistance.

[6] = system: BJ-TERT/LT/ST/RAS^V12 cells; experiment: Cell death, viable cells counted using a hemacytometer; format: cell-based, human; details: 13 μM erastin Al, 23 μM antimycin, 126 μM 2-ME or the combinations

N#CC(=C(N)Sc1ccc(N)cc1)c1ccccc1C(F)(F)F [MEK 1/2 inhibitor]
effect of MEK inhibitor on erastin lethality [1]: prevent erastin lethality

N#C/C(=C(/N)Sc1ccccc1N)c1cccc(C(O)c2ccncc2)c1 (stereo not drawn) [MEK inhibitor I]
effect of MEK inhibitor on erastin lethality [1]: prevent erastin lethality

CC(=O)N(O)CCCCCNC(=O)CCC(=O)N(O)CCCCCNC(=O)CCC(=O)N(O)CCCCCN [desferrioxamine mesylate]
effect of iron chelator on erastin lethality [2]: suppress erastin lethality

CCOc1ccccc1-n1c(C(C)N2CCN(C(=O)COc3ccc(Cl)cc3)CC2)nc2cc(NC(C)=O)ccc2c1=O (stereo not drawn) [erastin A9]
IC50 ([3]; BJELR (BJ-TERT/LT/ST/RAS^V12) cells): 1900 nM

CCOc1ccccc1-n1c(C(C)N2CCN(C(=O)COc3ccc(CN)cc3)CC2)nc2ccccc2c1=O (stereo not drawn) [erastin A3]
selective lethality / activity in cells [3]: retained the ability to kill BJ-TERT/LT/ST/RAS^V12 cells but not BJ-TERT cells | VDAC isoforms identified on the immobilized analog resin [4]: all three isoforms of the human mitochondrial voltage-dependent anion channels (VDAC1, VDAC2 and VDAC3) were identified

COc1cc([C@@H]2c3cc4c(cc3[C@H](O)[C@H]3COC(=O)[C@H]23)OCO4)cc(OC)c1OC [podophyllotoxin]
change in sensitivity/potency after upregulation of VDAC proteins by nucleofection [5]: did not change the potency

CCOc1ccccc1-n1c(C(C)N2CCN(C(C)=O)CC2)nc2ccccc2c1=O (stereo not drawn) [erastin A8]
selective lethality / activity in cells [3]: inactive

N#CC(=C(/N)Sc1ccccc1N)/C(C#N)=C(\N)Sc1ccccc1N [U0126]
effect of MEK inhibitor on erastin lethality [1]: prevent erastin lethality

CC(C)NC(=O)N(CCN1CCN(C(=O)COc2ccc(Cl)cc2)CC1)Cc1ccc(F)cc1 [erastin B1]
selective lethality / activity in cells [3]: inactive

CCOc1ccccc1-n1c(C(C)N2CCN(C(=O)COc3ccc(CN)cc3)CC2)nc2ccccc2c1=O (stereo not drawn) [erastin A6]
selective lethality / activity in cells ([3]; listed as ERA-A6): selectively lethal to RASV12-expressing cells | VDAC isoforms identified on the immobilized analog resin [4]: all three isoforms of the human mitochondrial voltage-dependent anion channels (VDAC1, VDAC2 and VDAC3) were identified

CC(C)NC(=O)N(CCN1CCN(C(=O)COc2ccc(Cl)cc2)CC1)Cc1ccc(CN)cc1 [erastin B2]
selective lethality / activity in cells [3]: lacks activity | lethality (no lethality up to) ([3]; BJELR cells): > 50 µM | VDAC isoforms identified on the immobilized analog resin [4]: only VDAC1

O=C(N/N=C/c1c(O)ccc2ccccc12)c1ccncc1 [compound 311]
effect of iron chelator on erastin lethality [2]: suppress erastin lethality

antimycin
Cell death (%) [6]: 51%

COc1cc2c(cc1O)CC[C@@H]1[C@@H]2CC[C@]2(C)[C@@H](O)CC[C@@H]12 [2-ME, 2-methoxyestradiol]
Cell death (%) [6]: 66%
